From patent US20220133894A1, “BISPHOSPHONATE-LINKED COMPOUNDS” (OREGON HEALTH & SCIENCE UNIVERSITY, priority 2019, published 2022)

What was measured:
RAW 267.4 cells = assay: Osteo Assay pit formation, osteoclast-mediated bone degradation; assay type: cell-based, mouse
Method: FIG. 4 represents the KBU2046 inhibition of osteoclast function. FIG. 4A compares effects on Raf1 activation. RAW 267.4 cells were treated with RANKL for 4 days, treated with 10 μM KBU2046 for the indicated time periods, and Western blot for the denoted proteins performed. (B) Effects on cell morphology. RAW 267.4 cells were treated with RANKL and with KBU2046 for 4 days, or not, and denoted, and stained for actin (green) and DAPI (blue); white arrow denotes an actin ring, yellow arrow a resorptive cavity. Representative immunofluorescent images are depicted. (C) Tartrate resistant acid phosphatase (TRAP) expression. […] RAW 267.4 cells were plated onto Osteo Assay plates, treated with RANKL for 6 days and with KBU2046 (or vehicle for controls) as indicated and bone surface area quantified. Data are the mean±SEM (N=3 replicates) of bone surface area, expressed as the percentage of control cells; * denotes P<0.05 compared to control.
To determine whether KBU2046 inhibits osteoclast-mediated bone degradation, we used Corning Osteo Assay Surface plates, which are coated with calcium-phosphate-based bone mineral. This platform supports osteoclast growth, allowing for the quantitative measurement of bone degradation, and has previously been used to measure bisphosphonate-mediated inhibition of bone degradation (40). […]

LNCaP/AR-luc cells = assay: Castration resistant PCa orthotopic implantation, tumor outgrowth; assay type: in vivo, mice; settings: orthotopic implants, 80 mg/kg KBU2046 oral, treatment from 12 weeks
Method: To complete our assessments of the androgen related paradigm, the effect of KBU2046 on resistance to hormone therapy was evaluated. The outgrowth of LNCaP/AR-luc cells in castrate mice is routinely utilized as a model to emulate the transition to a castration resistant phenotype (Tran et al., Science 324, 787-790 (2009)). In this model, tumor outgrowth is detectable ˜8 weeks post implantation, and growth kinetics are typically monitored until 16 weeks post implantation. Here, two treatment approaches were investigated, the effects of beginning treatment early at 4 weeks, or late at 12 weeks, and were performed in mice receiving subcutaneous or orthotopic implants, respectively (FIGS. 3F and 3G).
LNCaP or VCaP cells cultured in hormone free media were treated with R1881 (R), KBU2046 (46) and/or enzalutamide (E). (FIGS. 3A and 3B) Effects on AR-responsive gene expression. PSA expression was measured by qRT/PCR, normalized to GAPDH and expressed as a percent of control cells (N=3 replicates); * denotes P<0.05 for groups separated by bar. (FIGS. 3C and 3D) Effects on cell growth. Three day growth assays were performed. Data are the number of viable cells, expressed as % of control (N=3 replicates); * P<0.05 compared to control. (E) Effects on AR activation. […] Data are tumor size, expressed as luminescence intensity. All data are expressed as mean±SEM. […]

O=C1c2ccccc2OCC1c1ccc(F)cc1 (stereo not drawn) [KBU2046, 3-(4-fluorophenyl)chroman-4-one]
increase of bone surface area compared with control (mean±SEM) (RAW 267.4 cells; 10 μmol/L KBU2046, RANKL, 6 days): 28%±1.4% | bone surface area (RAW 267.4 cells; plates pre-treated with ZA at 2, 10 and 20 μM, KBU2046 10 μM): significantly increased | tumor growth (outgrowth in castrate mice) (LNCaP/AR-luc cells): did not alter
